IC50 data for 26 compounds are collected here from patent US20250154109A1, “SODIUM CHANNEL BLOCKING COMPOUNDS, DERIVATIVES THEREOF, AND METHODS OF THEIR USE” (LATIGO BIOTHERAPEUTICS, INC, priority 2022, published 2025).

pIC50: −log10 of the molar value. Where a name gives a salt, the structure may show the parent alone. Read-outs that look alike come from different tables or passages of the source.

This assay concerns the target human Nav1.8 (Homo sapiens, UniProt Q9Y5Y9). Description: SyncroPatch384PE assay (automated patch clamp). Format: cell-based. To be noted: human Nav1.8/b3 CHO cells.
Setting [1] is: inactivated state block (P2 measurement), read-out: P2 IC50.
[2] abbreviates: resting state block (P1 measurement), read-out: P1 IC50.

Sequence of human Nav1.8 (Q9Y5Y9 whole entry): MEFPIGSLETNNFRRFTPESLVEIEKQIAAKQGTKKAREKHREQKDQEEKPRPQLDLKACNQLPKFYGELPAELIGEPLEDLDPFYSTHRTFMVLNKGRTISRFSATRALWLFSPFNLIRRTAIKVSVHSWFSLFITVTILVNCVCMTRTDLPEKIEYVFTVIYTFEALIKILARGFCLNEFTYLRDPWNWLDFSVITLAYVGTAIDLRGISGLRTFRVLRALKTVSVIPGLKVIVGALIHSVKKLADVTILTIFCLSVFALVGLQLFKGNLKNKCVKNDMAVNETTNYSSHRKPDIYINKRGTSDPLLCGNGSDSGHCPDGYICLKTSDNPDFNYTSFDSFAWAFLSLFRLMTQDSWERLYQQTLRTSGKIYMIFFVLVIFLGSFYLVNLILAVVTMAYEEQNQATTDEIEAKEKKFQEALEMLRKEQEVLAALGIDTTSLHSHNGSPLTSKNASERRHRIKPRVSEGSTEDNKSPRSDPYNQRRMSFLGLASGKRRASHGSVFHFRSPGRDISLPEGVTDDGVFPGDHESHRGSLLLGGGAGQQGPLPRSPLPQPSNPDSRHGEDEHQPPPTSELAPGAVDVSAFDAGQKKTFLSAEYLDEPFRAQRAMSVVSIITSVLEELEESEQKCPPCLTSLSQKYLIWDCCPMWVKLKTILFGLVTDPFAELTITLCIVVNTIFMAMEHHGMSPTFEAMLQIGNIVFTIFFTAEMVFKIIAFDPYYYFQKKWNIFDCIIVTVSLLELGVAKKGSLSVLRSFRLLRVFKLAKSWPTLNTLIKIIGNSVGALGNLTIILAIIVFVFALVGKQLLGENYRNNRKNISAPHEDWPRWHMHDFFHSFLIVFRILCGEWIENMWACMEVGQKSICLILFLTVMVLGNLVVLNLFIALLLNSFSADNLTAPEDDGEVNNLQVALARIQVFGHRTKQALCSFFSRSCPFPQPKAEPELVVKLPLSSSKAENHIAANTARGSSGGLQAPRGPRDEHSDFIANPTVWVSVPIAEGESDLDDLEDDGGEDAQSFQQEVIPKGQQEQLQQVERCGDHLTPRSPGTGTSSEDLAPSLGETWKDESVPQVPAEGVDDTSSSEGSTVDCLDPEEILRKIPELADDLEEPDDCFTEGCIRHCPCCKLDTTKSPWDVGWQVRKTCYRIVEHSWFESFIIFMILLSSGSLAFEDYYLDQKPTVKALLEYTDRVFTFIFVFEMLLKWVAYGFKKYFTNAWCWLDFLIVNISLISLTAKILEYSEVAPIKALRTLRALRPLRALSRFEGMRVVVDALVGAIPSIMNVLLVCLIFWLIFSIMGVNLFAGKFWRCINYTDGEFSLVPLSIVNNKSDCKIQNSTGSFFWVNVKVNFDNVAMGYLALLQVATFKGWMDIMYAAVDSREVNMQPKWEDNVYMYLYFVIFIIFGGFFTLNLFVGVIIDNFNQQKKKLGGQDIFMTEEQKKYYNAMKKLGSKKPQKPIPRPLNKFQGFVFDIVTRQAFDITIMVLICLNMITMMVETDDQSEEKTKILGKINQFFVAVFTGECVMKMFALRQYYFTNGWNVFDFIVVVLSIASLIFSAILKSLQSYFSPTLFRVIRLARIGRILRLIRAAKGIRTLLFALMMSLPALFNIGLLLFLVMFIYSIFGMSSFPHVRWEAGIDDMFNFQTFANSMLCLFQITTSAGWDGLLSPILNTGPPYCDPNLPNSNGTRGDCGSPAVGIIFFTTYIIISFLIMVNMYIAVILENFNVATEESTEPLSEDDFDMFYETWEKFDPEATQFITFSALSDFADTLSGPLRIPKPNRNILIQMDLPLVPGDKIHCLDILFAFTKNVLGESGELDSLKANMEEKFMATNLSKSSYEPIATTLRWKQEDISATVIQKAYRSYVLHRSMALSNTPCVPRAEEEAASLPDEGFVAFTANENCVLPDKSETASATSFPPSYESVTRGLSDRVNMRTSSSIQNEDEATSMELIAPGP

As for `Cc1nc(N2CCC3(CC2)CC3)c(C(=O)Nc2cccc(S(C)(=N)=O)c2)cc1C(F)(F)F` (stereo not shown) [Example 25, 6-Methyl-N-(3-(S-methylsulfonimidoyl)phenyl)-2-(6-azaspiro[2.5]octan-6-yl)-5-(trifluoromethyl)nicotinamide], the negative-log IC50 (pIC50) (as a rule, the negative decadic logarithm of the IC50, by convention in mol/L) under setting [1] is at least 8.30 and the pIC50 under setting [2] was at least 8.30.
Turning to `Cc1c(C#N)c(C(F)(F)F)nc(N2CCCC(F)(F)CC2)c1C(=O)Nc1cccc([S@](C)(=N)=O)c1` [Example 56, (R)-5-cyano-2-(4,4-difluoroazepan-1-yl)-4-methyl-N-(3-(S-methylsulfonimidoyl)phenyl)-6-(trifluoromethyl)nicotinamide], the pIC50 was at least 8.30 under setting [1] and at least 8.30 under setting [2].
As to `Cc1c(Cl)c(-c2cnn(C)c2)nc(N2CCCC(F)(F)CC2)c1C(=O)Nc1ccnc([S@](C)(=N)=O)c1` [Example 212, (R)-5-chloro-2-(4,4-difluoroazepan-1-yl)-4-methyl-6-(1-methyl-1H-pyrazol-4-yl)-N-(2-(S-methylsulfonimidoyl)pyridin-4-yl)nicotinamide], the negative logarithm of the IC50 (pIC50) runs as follows: under setting [1], 7.30 to 8.30; under setting [2], 7.30 to 8.30.
Regarding `Cc1c(-c2cnn(C)c2)cnc(N2CCCC(F)(F)CC2)c1C(=O)Nc1cccc([S@@](C)(=O)=NC(=O)C2(N)CC2)c1` [Example 53, (R)-N-(3-(N-(1-aminocyclopropane-1-carbonyl)-S-methylsulfonimidoyl)phenyl)-2-(4,4-difluoroazepan-1-yl)-4-methyl-5-(1-methyl-1H-pyrazol-4-yl)nicotinamide formate], the pIC50 is 7.30 to 8.30 under setting [1] and 7.30 to 8.30 under setting [2].
On to `Cc1c(C#N)c(C(F)(F)F)nc(N2CCCC(F)(F)CC2)c1C(=O)Nc1cccc([S@@](C)(=O)=NCCN)c1` [Example 196, (R)-N-(3-(N-(2-aminoethyl)-S-methylsulfonimidoyl)phenyl)-5-cyano-2-(4,4-difluoroazepan-1-yl)-4-methyl-6-(trifluoromethyl)nicotinamide], for which the negative-log IC50 (pIC50) runs as follows: under setting [1], at least 8.30; under setting [2], at least 8.30.
As to `Cc1nc(N2CCCC(F)(F)CC2)c(C(=O)Nc2cccc(S(C)(=N)=O)c2)c(C)c1Cl` (stereo not shown) [Example 106, 5-chloro-2-(4,4-difluoroazepan-1-yl)-4,6-dimethyl-N-(3-(S-methylsulfonimidoyl)phenyl)nicotinamide], the pIC50 reads like this: under setting [1], at least 8.30; under setting [2], at least 8.30.
Take `Cc1c(C(F)(F)F)nnc(N2CCCC(F)(F)CC2)c1C(=O)Nc1cccc([S@](C)(=N)=O)c1` [Example 28, (R)-3-(4,4-Difluoroazepan-1-yl)-5-methyl-N-(3-(S-methylsulfonimidoyl)phenyl)-6-(trifluoromethyl)pyridazine-4-carboxamide]: the pIC50 runs as follows: under setting [1], 7.30 to 8.30; under setting [2], 7.30 to 8.30.
On to `Cc1c(C(F)(F)F)nnc(N2CCCC(F)(F)CC2)c1C(=O)Nc1cccc(S(=N)(N)=O)c1` (stereo not shown) [Example 115, 3-(4,4-difluoroazepan-1-yl)-5-methyl-N-(3-sulfamidimidoylphenyl)-6-(trifluoromethyl)pyridazine-4-carboxamide], for which the pIC50 reads like this: under setting [1], at least 8.30; under setting [2], at least 8.30.
Take `Cc1c(Cl)c(C(F)(F)F)nc(N2CCCC(F)(F)CC2)c1C(=O)Nc1cccc([S@](C)(=N)=O)c1` [Example 109, (R)-5-chloro-2-(4,4-difluoroazepan-1-yl)-4-methyl-N-(3-(S-methylsulfonimidoyl)phenyl)-6-(trifluoromethyl)nicotinamide]: the pIC50 runs as follows: under setting [1], at least 8.30; under setting [2], at least 8.30.
Take `C=CCCc1ccc(C(=O)Nc2cccc([S@@](C)(=N)=O)c2)c(N2CCCC(F)(F)CC2)n1` [Example 30, (S)-6-(3-Buten-1-yl)-2-(4,4-difluoroazepan-1-yl)-N-(3-(S-methylsulfonimidoyl)phenyl)nicotinamide]: the pIC50 is at least 8.30 under setting [1] and at least 8.30 under setting [2].
In the case of `CS(=N)(=O)c1cccc(NC(=O)c2nnc(C(F)(F)F)cc2N2CCCC(F)(F)CC2)c1` (stereo not shown) [Example 21, 4-(4,4-difluoroazepan-1-yl)-N-(3-(S-methylsulfonimidoyl)phenyl)-6-(trifluoromethyl)pyridazine-3-carboxamide], the pIC50 is, setting by setting: under setting [1], under 6.70; under setting [2], under 6.70.
`C[S@](=N)(=O)c1cccc(NC(=O)c2c(N3CCCC(F)(F)CC3)cnc(C(F)(F)F)c2Cl)c1` [Example 207, (S)-3-chloro-5-(4,4-difluoroazepan-1-yl)-N-(3-(S-methylsulfonimidoyl)phenyl)-2-(trifluoromethyl)isonicotinamide]: the pIC50 under setting [1] was 7.30 to 8.30 and the pIC50 under setting [2] was 7.30 to 8.30.
On to `Cc1ccsc1-c1nnc(N2CCCCCC2)c(C(=O)Nc2cccc(S(C)(=N)=O)c2)c1C` (stereo not shown) [Example 79, 3-(Azepan-1-yl)-5-methyl-N-(3-(S-methylsulfonimidoyl)phenyl)-6-(3-methylthiophen-2-yl)pyridazine-4-carboxamide], for which the pIC50 was under 6.70 under setting [1] and under 6.70 under setting [2].
Turning to `Cc1c(C(F)(F)F)cnc(N2CCCC(F)(F)CC2)c1C(=O)Nc1cccc([S@@](C)(=O)=NC(=O)C2(N)CCC2)c1` [Example 180, (R)-N-(3-(N-(1-aminocyclobutane-1-carbonyl)-S-methylsulfonimidoyl)phenyl)-2-(4,4-difluoroazepan-1-yl)-4-methyl-5-(trifluoromethyl)nicotinamide], the pIC50 was at least 8.30 under setting [1] and at least 8.30 under setting [2].
With `Cc1nc(C(F)(F)F)nc(N2CCCC(F)(F)CC2)c1C(=O)Nc1cccc([S@@](C)(=N)=O)c1` [Example 143, (S)-4-(4,4-difluoroazepan-1-yl)-6-methyl-N-(3-(S-methylsulfonimidoyl)phenyl)-2-(trifluoromethyl)pyrimidine-5-carboxamide], the pIC50 by setting is: under setting [1], 7.00 to 7.30; under setting [2], 7.00 to 7.30.
With `Cc1nc(N2CCCC(F)(F)CC2)c(C(=O)Nc2cccc([S@@](C)(=N)=O)c2)c(C)c1C(F)(F)F` (single isomer, unassigned) [Example 185], the pIC50 is, setting by setting: under setting [1], at least 8.30; under setting [2], at least 8.30.
With `Cc1nc(N2CCN(C)CC2)nc(N2CCCC(F)(F)CC2)c1C(=O)Nc1cccc([S@](C)(=N)=O)c1` [Example 157, (R)-4-(4,4-difluoroazepan-1-yl)-6-methyl-2-(4-methylpiperazin-1-yl)-N-(3-(S-methylsulfonimidoyl)phenyl)pyrimidine-5-carboxamide], the pIC50 runs as follows: under setting [1], under 6.70; under setting [2], under 6.70.
Consider `COc1ccc(-c2cnc(N3CCCC(F)(F)CC3)c(C(=O)Nc3cccc(S(C)(=N)=O)c3)c2C)cc1` (stereo not shown) [Example 93, 2-(4,4-difluoroazepan-1-yl)-5-(4-methoxyphenyl)-4-methyl-N-(3-(S-methylsulfonimidoyl)phenyl)nicotinamide], for which the pIC50 was at least 8.30 under setting [1] and at least 8.30 under setting [2].
For `Cc1c(-c2ccc(F)cc2)cnc(N2CCCC(F)(F)CC2)c1C(=O)Nc1cccc(S(C)(=N)=O)c1` (stereo not shown) [Example 88, 2-(4,4-difluoroazepan-1-yl)-5-(4-fluorophenyl)-4-methyl-N-(3-(S-methylsulfonimidoyl)phenyl)nicotinamide], the pIC50 is, setting by setting: under setting [1], at least 8.30; under setting [2], at least 8.30.
Turning to `Cc1c(C#CC2CC2)cnc(N2CCCC(F)(F)CC2)c1C(=O)Nc1cccc([S@](C)(=N)=O)c1` [Example 63, (R)-5-(cyclopropylethynyl)-2-(4,4-difluoroazepan-1-yl)-4-methyl-N-(3-(S-methylsulfonimidoyl)phenyl)nicotinamide], the pIC50 was at least 8.30 under setting [1] and at least 8.30 under setting [2].
Take `CNCC(=O)N=[S@](C)(=O)c1cccc(NC(=O)c2c(N3CCCC(F)(F)CC3)ncc(-c3cc(F)cc(F)c3)c2C)c1` [Example 62, (R)-2-(4,4-difluoroazepan-1-yl)-5-(3,5-difluorophenyl)-4-methyl-N-(3-(S-methyl-N-(methylglycyl)sulfonimidoyl)phenyl)nicotinamide]: the pIC50 runs as follows: under setting [1], at least 8.30; under setting [2], at least 8.30.
In the case of `Cc1c(C(=O)Nc2cccc([S@@](C)(=O)=NC(=O)CN)c2)c(N2CCCC(F)(F)CC2)nc(C(F)(F)F)c1-c1cnn(C)c1` [Example 184, (R)-2-(4,4-difluoroazepan-1-yl)-N-(3-(N-glycyl-S-methylsulfonimidoyl)phenyl)-4-methyl-5-(1-methyl-1H-pyrazol-4-yl)-6-(trifluoromethyl)nicotinamide], the pIC50 reads like this: under setting [1], at least 8.30; under setting [2], at least 8.30.
As to `Cc1c(-c2ccc(C(F)(F)F)cc2)cnc(N2CCCC(F)(F)CC2)c1C(=O)Nc1cccc([S@](C)(=N)=O)c1` [Example 169, (R)-2-(4,4-difluoroazepan-1-yl)-4-methyl-N-(3-(S-methylsulfonimidoyl)phenyl)-5-(4-(trifluoromethyl)phenyl)nicotinamide], the pIC50 under setting [1] is at least 8.30 and the pIC50 under setting [2] is at least 8.30.
With `CNS(=N)(=O)c1cc(NC(=O)c2cc(C(F)(F)F)c(C)nc2N2CCCC(F)(F)CC2)ccn1` (stereo not shown) [Example 107, 2-(4,4-difluoroazepan-1-yl)-6-methyl-N-(2-(N-methylsulfamidimidoyl)pyridine-4-yl)-5-(trifluoromethyl)nicotinamide], the pIC50 is, setting by setting: under setting [1], at least 8.30; under setting [2], at least 8.30.
On to `Cc1c(-c2cnn(C)c2)cnc(N2CCCC(F)(F)CC2)c1C(=O)Nc1ccc(F)c([S@@](C)(=N)=O)c1` [Example 213, (S)-2-(4,4-difluoroazepan-1-yl)-N-(4-fluoro-3-(S-methylsulfonimidoyl)phenyl)-4-methyl-5-(1-methyl-1H-pyrazol-4-yl)nicotinamide], for which the pIC50 by setting is: under setting [1], 6.70 to 7.00; under setting [2], 6.70 to 7.00.
On to `CNCC(=O)N=[S@](C)(=O)c1cccc(NC(=O)c2c(N3CCCC(F)(F)CC3)ncc(-c3ccc4c(c3)OCCO4)c2C)c1` [Example 48, (R)-2-(4,4-difluoroazepan-1-yl)-5-(2,3-dihydrobenzo[b][1,4]dioxin-6-yl)-4-methyl-N-(3-(S-methyl-N-(methylglycyl)sulfonimidoyl)phenyl)nicotinamide], for which the pIC50 runs as follows: under setting [1], at least 8.30; under setting [2], at least 8.30.
